Data on 7 compounds can be found in ChEMBL document CHEMBL1153151, “Novel P2-P4 macrocyclic inhibitors of HCV NS3/4A protease by P3 succinamide fragment depeptidization strategy” (Bioorg Med Chem Lett, 2010).

For one series, the system named is Hepatitis C virus. As to the kind of experiment: Antiviral activity against HCV 1b infected in Huh7 cells assessed as inhibition viral subgenomic replication by luciferase based replicon assay. Conditions: genotype 1b, Huh-7. The class given is functional, organism-based, Hepacivirus hominis.
Series [1] can be described thus: Inhibition of HCV NS3/4A protease. Further details: species or system Hepacivirus hominis.
Series [2] relates to Rattus norvegicus. The experiment in a line: AUC (0 to infinity) in Wistar rat plasma at 4 mg/kg, po. Type of series: ADME, organism-based. Set-up: time infinity, dose 4 mg/kg, route oral. Conditions: in vivo.
Series [3] in a line: (§1) Cmax in Wistar rat at 4 mg/kg, po. The class given is ADME, organism-based. Set-up: dose 4 mg/kg, route oral. Conditions: Wistar, in vivo.
Series [4] is described as follows: Drug level in Wistar rat liver at 4 mg/kg, po after 4 hrs. Type of series: ADME, organism-based. Conditions: read-out: AUC. Further details: dose 4 mg/kg, route oral.
Series [5] concerns Rattus norvegicus. The description is as §1. Type of series: ADME, organism-based. Set-up: dose 4 mg/kg, route oral. Conditions: in vivo, BLD = below limit of detection.

Turning to `C=C[C@@H]1C[C@]1(NC(=O)[C@@H]1C[C@@H]2CN1C(=O)[C@H](C(C)C)NC(=O)OCCC/C=C\c1cccc3c1CN(C3)C(=O)O2)C(=O)NS(=O)(=O)C1CC1`, in the series on Hepatitis C virus, the EC50 is 12 nM. This compound also yielded a Ki in series [1] of 0.06 nM.
Regarding `C=C[C@@H]1C[C@]1(NC(=O)[C@@H]1C[C@@H]2CN1C(=O)[C@H](C(C)C)CC(=O)N(C(C)C)CCCCCc1cccc3c1CN(C3)C(=O)O2)C(=O)NS(=O)(=O)C1CC1`, in the series with Hepatitis C virus, the EC50 stood at 35 nM. In the series on Rattus norvegicus [2], this compound showed an AUC of 0.22 µM·h. In series [1], this compound came in with a Ki of 0.72 nM. In addition, the concentration in series [3] peaked (Cmax) at 80 nM. For the same compound, in series [4], the concentration at 4 h worked out at 2200 nM.
As for `C=C[C@@H]1C[C@]1(NC(=O)[C@@H]1C[C@@H]2CN1C(=O)[C@H](C(C)C)CC(=O)NCCCCCc1cccc3c1CN(C3)C(=O)O2)C(=O)NS(=O)(=O)C1CC1`, the EC50 in the series on Hepatitis C virus turned out to be 100 nM. Further, the Ki in series [1] stood at 1.4 nM.
For `C=C[C@@H]1C[C@]1(NC(=O)[C@@H]1C[C@@H]2CN1C(=O)[C@H](C1CCCCC1)CC(=O)N(C(C)C)CCCCCc1cc(OC)cc3nc(-c4ccccc4)cc(c13)O2)C(=O)NS(=O)(=O)C1CC1`, the EC50 in the series with Hepatitis C virus came out at 37 nM. Besides, the AUC in the series with Rattus norvegicus [2] stood at 1.1 µM·h. The compound also showed a Ki in series [1] of 0.6 nM. The same compound gave a Cmax in series [3] of 380 nM. Besides, the concentration at 4 h in series [4] turned out to be 9300 nM.
For `C=C[C@@H]1C[C@]1(NC(=O)[C@@H]1C[C@@H]2CN1C(=O)[C@H](C1CCCCC1)CC(=O)NCCCCCc1cccc3c1CN(C3)C(=O)O2)C(=O)NS(=O)(=O)C1CC1` the same measures were 12 nM, 0.12 µM·h, 0.76 nM, 50 nM and 2200 nM.
As to `C=C[C@@H]1C[C@]1(NC(=O)[C@@H]1C[C@@H]2CN1C(=O)[C@H](C1CCCCC1)CC(=O)NCCCCCc1cc(OC)cc3nc(-c4ccccc4)cc(c13)O2)C(=O)NS(=O)(=O)C1CC1`, in the series on Hepatitis C virus, the EC50 was 7 nM. The same compound displayed a Ki in series [1] of 0.56 nM. The Cmax entry in the series with Rattus norvegicus [5] is on record as “BLD”. Moreover, the concentration at 4 h in series [4] amounted to 100 nM.
`C=C[C@@H]1C[C@]1(NC(=O)[C@@H]1C[C@@H]2CN1C(=O)[C@H](C1CCCCC1)CC(=O)N(C(C)C)CCCCCc1cccc3c1CN(C3)C(=O)O2)C(=O)NS(=O)(=O)C1CC1`: the EC50 with Hepatitis C virus is 11 nM. In the series on Rattus norvegicus [2], this compound returned an AUC of 0.09 µM·h. In series [1], this compound showed a Ki of 0.61 nM. In series [3], this compound yielded a maximum concentration (Cmax) of 90 nM. The concentration at 4 h in series [4] came to 3000 nM.
